From article PMC11496704, “Synthesis and cytotoxicity studies of novel N-arylbenzo[h]quinazolin-2-amines” (Beilstein Journal of Organic Chemistry, 2024)
pIC50: −log10 of the molar value.

Columns and labels:
DYRKs kinases = system: DYRKs kinases; design: method as in PMID 33422908, PMID 36234686; details: at 100 μM; cited from earlier work
HuH-7 = assay: Cytotoxicity secondary screen (IC50); assay type: cell-based; details: Homo sapiens, 48 h exposure, mean of triplicates, NE: no effect
Experimental: (§1) Cell culture. Skin normal fibroblastic cells are purchased from Lonza (Basel, Switzerland), HuH-7, Caco-2, MDA-MB-231, HCT-116, PC3, MCF7 and NCI-H727 cancer cell lines were obtained from ATCC (American Type Culture Collection). Cells are grown at 37 °C, 5% CO2 in ATCC recommended media: DMEM for HuH-7, MDA-MB-231, MDA-MB-468 and fibroblast, EMEM for MCF7 and CaCo-2, McCoy’s for HCT-116 and RPMI for PC3 and NCI-H727. All culture media are supplemented by 10% of FBS, 1% of penicillin-streptomycin and 2 mM glutamine.
(§2) Both studies have been performed following the protocols described in a previous paper, see ref. [2].

PC3 [1] = assay: Cytotoxicity secondary screen (IC50); assay type: cell-based; details: Homo sapiens, PC-3; 48 h exposure, mean of triplicates; NE: no effect
Experimental: as §1, §2

MDA-MB-231 = assay: Cytotoxicity secondary screen (IC50); assay type: cell-based; details: Homo sapiens, 48 h exposure, mean of triplicates, NE: no effect
MDA231 = assay: Cytotoxicity primary screen (single dose); assay type: cell-based; design: viability: dose or concentration left out as unconfirmed; details: Homo sapiens, MDA-MB-231; 48 h exposure, mean of triplicates; read-out: percentage of cell survival over DMSO control, MDA231
Experimental: (§3) Next, we performed a cytotoxicity screening of the nineteen molecules 4a–s, at 25 μM, investigating seven representative cancer cell lines: hepatocellular carcinoma HuH-7, colorectal adenocarcinoma CaCo-2, breast carcinoma MDA-MB-231 and MDA-MB-468, colorectal carcinoma HCT-116, prostate carcinoma PC3 and breast carcinoma MCF7. […] For details see: ref. [2] and Supporting Information File 1, Table S1.
as §1, §2
(§4) Table S1: Cytotoxicity studies (single dose at 25µM) of N-arylbenzo[h]quinazolin-2-amines 4a–s
(§5) The toxicity is expressed as the percentage of cell survival (from 100 % to 0 %) over DMSO control after 48 h exposure (mean of triplicates).
(§6) Effect of the solvent (DMSO) was studied at 0.25%.

PC3 [2] = assay: Cytotoxicity primary screen (single dose); assay type: cell-based; design: viability: dose or concentration left out as unconfirmed; details: Homo sapiens, PC-3; 48 h exposure, mean of triplicates; read-out: percentage of cell survival over DMSO control, PC3
Experimental: as §3, §1, §2, §4, §5, §6

MCF7 [3] = assay: Cytotoxicity primary screen (single dose); assay type: cell-based; design: viability: dose or concentration left out as unconfirmed; details: Homo sapiens, 48 h exposure, mean of triplicates, read-out: percentage of cell survival over DMSO control, MCF7
Experimental: as §3, §1, §2, §4, §5, §6

HCT116 = assay: Cytotoxicity primary screen (single dose); assay type: cell-based; design: viability: dose or concentration left out as unconfirmed; details: Homo sapiens, HCT-116; 48 h exposure, mean of triplicates; read-out: percentage of cell survival over DMSO control, HCT116
Experimental: as §3, §1, §2, §4, §5, §6

MCF7 [4] = assay: Cytotoxicity secondary screen (IC50); assay type: cell-based; details: Homo sapiens, 48 h exposure, mean of triplicates, NE: no effect
MDA-MB-468 = assay: Cytotoxicity secondary screen (IC50); assay type: cell-based; details: Homo sapiens, 48 h exposure, mean of triplicates, NE: no effect
Caco-2 [5] = assay: Cytotoxicity secondary screen (IC50); assay type: cell-based; details: Homo sapiens, 48 h exposure, mean of triplicates, NE: no effect
Experimental: as §3, §1, §2

HCT-116 = assay: Cytotoxicity secondary screen (IC50); assay type: cell-based; details: Homo sapiens, 48 h exposure, mean of triplicates, NE: no effect
Experimental: as §3, §1, §2

Caco-2 [6] = assay: Cytotoxicity primary screen (single dose); assay type: cell-based; details: reference compound at 0.025 M (so in the source), 48 h exposure, mean of triplicates
Experimental: as §3, §1, §2, §4, §5, §6

HuH7 = assay: Cytotoxicity primary screen (single dose); assay type: cell-based; design: dose or concentration left out as unconfirmed; details: Homo sapiens, Huh-7; 48 h exposure, mean of triplicates; read-out: percentage of cell survival over DMSO control, HuH7

SMILES | action against DYRKs kinases (DYRKs kinases) | pIC50 (HuH-7) | pIC50 (PC3 [1]) | pIC50 (MDA-MB-231) | viability (MDA231) [%] | viability (PC3 [2]) [%] | viability (MCF7 [3]) [%] | viability (HCT116) [%] | pIC50 (MCF7 [4]) | pIC50 (MDA-MB-468) | pIC50 (Caco-2 [5]) | pIC50 (HCT-116) | percentage of cell survival over DMSO control, CaCo-2 (Caco-2 [6]) [%] | viability (HuH7) [%]
Cc1ccc(-n2cc(COc3cccc4cnc(Nc5cccc(Cl)c5)nc34)nn2)c([N+](=O)[O-])c1 [DB18] | does not show any action |  |  |  |  |  |  |  |  |  |  |  |  | 
CC(=O)O[C@H]1C(=O)[C@@]2(C)[C@H]([C@H](OC(=O)c3ccccc3)[C@]3(O)C[C@H](OC(=O)[C@H](O)[C@@H](NC(=O)c4ccccc4)c4ccccc4)C(C)=C1C3(C)C)[C@]1(OC(C)=O)CO[C@@H]1C[C@@H]2O [Taxol, reference compound] |  | 8.05 | 8.40 | 7.70 | 32 | 30 | 27 | 7 | 7.70 | 8.22 | 7.15 | 8.52 | 36 | 43
